Results as given in patent US20260069594A1, “USE OF AN AGENT CAPABLE OF INHIBITING THE ACTIVATION OF MAIT CELLS FOR THE TREATMENT OF RHEUMATOID ARTHRITIS” (INSTITUT NATIONAL DE LA SANTÉ ET DE LA RECHERCHE MÉDICALE, priority 2022, published 2026).

Legend:
MAIT cells = assay: mBSA-induced arthritis in wild type mice treated with Ac6FP or PBS; assay type: in vivo; conditions: wild type male mice, intraperitoneal twice a week
Description: Arthritis was induced by intra-articular injection of methylated bovine serum albumin (mBSA) in MR1^−/− (depleted in MAIT cells) and wild type C57BL/6 mice, previously immunized with mBSA. We included 9 mice in each group, only females, which were 6 to 8 weeks old. Mice were daily evaluated for signs of joint inflammation, assessed by measuring tarsal thickness and scored on a scale of 0-4, where 0=no change, 1=local swelling and redness of digits, 2=mild swelling and redness, 3=severe swelling and redness, 4=necrosis. Mice were sacrificed on day 8, and the paws were separated, fixed with 4% paraformaldehyde and decalcified for histopathological assessment. All mice developed arthritis, with a peak of inflammation at day 1.
Arthritis was induced by intra-articular injection of methylated bovine serum albumin (mBSA) in wild type mice, treated with Acetyl-6-formylpterin (Ac6FP), a non-activating ligand of MAIT cells or PBS, previously immunized with mBSA. Ac6FP or PBS were injected twice a week in intraperitoneal. We included 6 wild type mice in each group, only males, which were 8 weeks old. Mice were daily evaluated as described previously. All mice developed arthritis, with a peak of inflammation at day 1.
Values are the mean+/−SEM of 6 mice in each group. Test: Student T test. Ac6FP: Acetyl-6-formylpterin. AUC: Area Under Curve. […]

rheumatoid arthritis = conditions: cited from earlier work

| SMILES | clinical score (scale 0-4) compared to PBS group (MAIT cells; daily evaluation) | area under curve (AUC) of clinical score, median (MAIT cells; n=6, vs. 5.5 in PBS group, p=0.07) | patients reaching remission states (rheumatoid arthritis; RA patients at 6-12 months) | patients reaching low disease activity states (rheumatoid arthritis; early RA patients, with or without corticosteroids) |
| --- | --- | --- | --- | --- |
| CC(=O)Nc1nc2ncc(C=O)nc2c(=O)[nH]1 [Ac6FP, Acetyl-6-formylpterin] | lower clinical score | 3 | – | – |
| CN(Cc1cnc2nc(N)nc(N)c2n1)c1ccc(C(=O)N[C@@H](CCC(=O)O)C(=O)O)cc1 [MTX, methotrexate] | – | – | 10-20% | 25-50% |
